Measured values from patent publication US11753407B2, “Compounds for treating spinal muscular atrophy” (PTC Therapeutics, Inc., priority 2012, dated 2023).

Columns and labels:
[1] = tested on: SMN2 minigene mRNA (SMN2-A minigene) in HEK293H cells; assay: SMN2 minigene mRNA splicing RT-qPCR assay in cultured cells; type: cell-based, human; settings: Homo sapiens, HEK293-H; concentration increasing full length SMN2 mRNA 1.5-fold relative to vehicle-treated cells; HEK293H cells with SMN2-A minigene, 24 hours, 7-point concentration data; read-out: EC1.5x for production of full length SMN2 mRNA
How it was run: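 HEK293H cells stably carrying the SMN2-A minigene were treated for 24 h at 37 °C with a 7-point, 3.16-fold dilution series of compound. Multiplex RT-qPCR measured exon 7-containing minigene FL mRNA against GAPDH, expressed relative to vehicle by modified ΔΔCt; the EC1.5× is the concentration giving a 1.5-fold increase.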

[2] = tested on: Smn protein in SMA patient fibroblast cells (GM03813); assay: Smn protein assay in cultured cells (SMN HTRF); type: cell-based, human; settings: SMA patient fibroblast cells, 48 hours; for EC1.5x for Smn protein expression: 7-point concentration curve, SMN HTRF, concentration producing 1.5 times Smn protein vs DMSO vehicle control; for maximum fold (Fold) increase of Smn protein: 7-point concentration data, fold relative to vehicle control
How it was run: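 SMA patient fibroblasts (5,000 cells/well, DMEM-10% FBS) were treated for 48 h at 37 °C with a 7-point, 3.16-fold dilution series in triplicate. RIPA lysates were probed by HTRF (anti-SMN d2/kryptate, overnight, room temperature), reading 665/620 nm. EC1.5× is the concentration giving 1.5-fold Smn over DMSO vehicle.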

melting point [°C]	SMILES	EC (1.5-fold increase) [1] [µM]	EC1.5x for Smn protein expression [2]	maximum fold (Fold) increase of Smn protein [2]
257 to 259	CCc1nc(C)cn2nc(-c3cc(=O)n4cc(N5CCN(C)[C@H](C)C5)ccc4n3)cc12 [Cpd 629, 7-[(3R)-3,4-dimethylpiperazin-1-yl]-2-(4-ethyl-6-methylpyrazolo[1,5-a]pyrazin-2-yl)-4H-pyrido[1,2-a]pyrimidin-4-one]	< 0.1	**** (an EC1.5x≤0.3 μM is indicated by four stars (****))	***** (a fold increase >1.65 is indicated by five stars (*****))
197 to 199	Cc1cn2nc(-c3cc(=O)n4cc(C5CCN(CCF)CC5)ccc4n3)cc2c(C)n1 [Cpd 662, 2-(4,6-dimethylpyrazolo[1,5-a]pyrazin-2-yl)-7-[1-(2-fluoroethyl)piperidin-4-yl]-4H-pyrido[1,2-a]pyrimidin-4-one]	< 0.1	**** (an EC1.5x≤0.3 μM is indicated by four stars (****))	***** (a fold increase >1.65 is indicated by five stars (*****))
> 320	Cc1cn2cc(-c3cc(=O)n4cc(N5CCNCC5)ccc4n3)cc(CO)c2n1 [Cpd 674, 2-[8-(hydroxymethyl)-2-methylimidazo[1,2-a]pyridin-6-yl]-7-(piperazin-1-yl)-4H-pyrido[1,2-a]pyrimidin-4-one]	< 0.1	**** (an EC1.5x≤0.3 μM is indicated by four stars (****))	***** (a fold increase >1.65 is indicated by five stars (*****))
245 to 248	Cc1cn2nc(-c3cc(=O)n4cc(N5CCNCC5)ccc4n3)cc2c(N(C)C)n1 [Cpd 688, 2-[4-(dimethylamino)-6-methylpyrazolo[1,5-a]pyrazin-2-yl]-7-(piperazin-1-yl)-4H-pyrido[1,2-a]pyrimidin-4-one]	1 to 3	** (an EC1.5× between >1 μM and ≤3 μM is indicated by two stars (**))	*** (a fold increase between >1.35 and ≤1.5 is indicated by three stars (***))
228 to 230	CCc1nc(C)cn2nc(-c3cc(=O)n4cc(C5CCN(C(CO)CO)CC5)ccc4n3)cc12 [Cpd 694, 7-[1-(1,3-dihydroxypropan-2-yl)piperidin-4-yl]-2-(4-ethyl-6-methylpyrazolo[1,5-a]pyrazin-2-yl)-4H-pyrido[1,2-a]pyrimidin-4-one]	< 0.1	**** (an EC1.5x≤0.3 μM is indicated by four stars (****))	***** (a fold increase >1.65 is indicated by five stars (*****))
274 to 277	Cc1cn2cc(-c3cc(=O)n4cc(N5CCNCC5)ccc4n3)cc(C3CC3)c2n1 [Cpd 714, 2-(8-cyclopropyl-2-methylimidazo[1,2-a]pyridin-6-yl)-7-(piperazin-1-yl)-4H-pyrido[1,2-a]pyrimidin-4-one]	< 0.1	**** (an EC1.5x≤0.3 μM is indicated by four stars (****))	***** (a fold increase >1.65 is indicated by five stars (*****))
244 to 246	Cc1cn2nc(-c3cc(=O)n4cc(N5CC[C@@H](CN)C5)ccc4n3)cc2c(C)n1 [Cpd 764, 7-[(3S)-3-(aminomethyl)pyrrolidin-1-yl]-2-(4,6-dimethylpyrazolo[1,5-a]pyrazin-2-yl)-4H-pyrido[1,2-a]pyrimidin-4-one]	1 to 3	* (An EC1.5× for Smn protein expression between >3 μM and ≤10 μM is indicated by one star (*))	*** (a fold increase between >1.35 and ≤1.5 is indicated by three stars (***))
136 to 138	Cc1cn2nc(-c3cc(=O)n4cc(CCCN(C)C)ccc4n3)cc2c(C)n1 [Cpd 769, 7-[3-(dimethylamino)propyl]-2-(4,6-dimethylpyrazolo[1,5-a]pyrazin-2-yl)-4H-pyrido[1,2-a]pyrimidin-4-one]	0.1 to 0.3	*** (an EC1.5× between >0.3 μM and ≤1 μM is indicated by three stars (***))	***** (a fold increase >1.65 is indicated by five stars (*****))
228 to 231	Cc1cn2nc(-c3cc(=O)n4cc(C5=C[C@H](C)N[C@@H](C)C5)ccc4n3)cc2c(C)n1 [Cpd 798, 2-(4,6-dimethylpyrazolo[1,5-a]pyrazin-2-yl)-7-[(2S,6S)-2,6-dimethyl-1,2,3,6-tetrahydropyridin-4-yl]-4H-pyrido[1,2-a]pyrimidin-4-one]	< 0.1	**** (an EC1.5x≤0.3 μM is indicated by four stars (****))	***** (a fold increase >1.65 is indicated by five stars (*****))
